Results: patent publication US8658646B2, “Pyrrolopyrazine kinase inhibitors” (Hoffmann-LaRoche Inc., priority 2011, dated 2014)
Several values for one entry are separate records, joined by “and”; a condition that tells them apart may be missing. Identical values can stand only once.

Columns and labels:
[1] = target: T1, JAK3: Recombinant human kinase domain (Homo sapiens, UniProt P52333); assay: Determination of IC50 of Janus Kinase (JAK) inhibition, radioactive end-point 33P-ATP assay, JAK3; format: biochemical; conditions: ATP 1.5 uM, peptide 50 uM, 20 minutes, read-out: JAK3-INHIB-DR/v1~NO ADDITIVE~Enzyme_Conc = 100
T1 construct: JAK3: Recombinant human kinase domain from Millipore (Cat #14-629) or prepared; purchased Millipore 14-629

[2] = target: T2, recombinant human SYK360-635 (Homo sapiens, UniProt P43405); assay: Determination of IC50 of Spleen Tyrosine Kinase (SYK) inhibition, 33P ATP filtration assay; format: biochemical; conditions: SYK aa 360-635 0.5 nM; ATP 20 μM, peptide 5 μM, 0.1% BSA; read-out: SYK_ENZYME_FILTRATION/v1, BSA
T2 construct: made in house

T1 sequence (P52333 822-1111 limits assumed): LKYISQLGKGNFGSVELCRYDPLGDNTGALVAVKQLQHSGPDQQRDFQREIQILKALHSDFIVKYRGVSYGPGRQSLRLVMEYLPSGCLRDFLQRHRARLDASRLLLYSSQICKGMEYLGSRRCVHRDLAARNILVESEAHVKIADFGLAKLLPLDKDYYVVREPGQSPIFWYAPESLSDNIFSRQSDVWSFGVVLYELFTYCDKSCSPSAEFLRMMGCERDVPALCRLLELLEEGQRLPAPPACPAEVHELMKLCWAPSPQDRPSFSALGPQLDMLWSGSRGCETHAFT

Structure (SMILES)	IC50 [1]	IC50 [2]
CC(NC(=O)c1c[nH]c2ncc(-c3nn(CCN(C)C)c4cc(Cl)ccc34)nc12)c1cccnc1 (stereo not shown) [Example I-246, 2-[6-Chloro-1-(2-dimethylamino-ethyl)-1H-indazol-3-yl]-5H-pyrrolo[2,3-b]pyrazine-7-carboxylic acid (1-pyridin-3-yl-ethyl)-amide]	0.0415 µM	0.354 µM
CC(NC(=O)c1c[nH]c2ncc(-c3nn(C)c4cc(Cl)ccc34)nc12)c1cccnc1 (stereo not shown) [Example I-247, 2-(6-Chloro-1-methyl-1H-indazol-3-yl)-5H-pyrrolo[2,3-b]pyrazine-7-carboxylic acid (1-pyridin-3-yl-ethyl)-amide]	0.0667 µM	0.0692 µM
CC(NC(=O)c1c[nH]c2ncc(-c3nn(CCN4CCOCC4)c4cc(F)ccc34)nc12)c1ccncc1 (stereo not shown) [Example I-248, 2-[6-Fluoro-1-(2-morpholin-4-yl-ethyl)-1H-indazol-3-yl]-5H-pyrrolo[2,3-b]pyrazine-7-carboxylic acid (1-pyridin-4-yl-ethyl)-amide]	0.0535 µM	0.514 µM
CC(NC(=O)c1c[nH]c2ncc(-c3nn(CCN(C)C)c4cc(F)ccc34)nc12)c1ccncc1 (stereo not shown) [Example I-249, 2-[1-(2-Dimethylamino-ethyl)-6-fluoro-1H-indazol-3-yl]-5H-pyrrolo[2,3-b]pyrazine-7-carboxylic acid (1-pyridin-4-yl-ethyl)-amide]	0.17 µM	1.99 µM
CC(Cc1ccccn1)NC(=O)c1c[nH]c2ncc(-c3nn(CCN4CCCC4)c4cc(F)ccc34)nc12 (stereo not shown) [Example I-250, 2-[6-Fluoro-1-(2-pyrrolidin-1-yl-ethyl)-1H-indazol-3-yl]-5H-pyrrolo[2,3-b]pyrazine-7-carboxylic acid (1-methyl-2-pyridin-2-yl-ethyl)-amide]	> 1 µM	8.93 µM
C[C@@H](NC(=O)c1c[nH]c2ncc(-c3nn(C)c4cc(F)ccc34)nc12)C1COC1 [Example I-252, 2-(6-Fluoro-1-methyl-1H-indazol-3-yl)-5H-pyrrolo[2,3-b]pyrazine-7-carboxylic acid ((R)-1-oxetan-3-yl-ethyl)-amide]	0.0194 µM	0.0672 µM
C[C@H](NC(=O)c1c[nH]c2ncc(-c3nn(C)c4cc(F)ccc34)nc12)c1cccc(OC(F)(F)F)c1 [Example I-253, 2-(6-Fluoro-1-methyl-1H-indazol-3-yl)-5H-pyrrolo[2,3-b]pyrazine-7-carboxylic acid [(S)-1-(3-trifluoromethoxy-phenyl)-ethyl]-amide]	> 1 µM	6.37 µM
C[C@@H](NC(=O)c1c[nH]c2ncc(-c3nn(C)c4cc(F)ccc34)nc12)c1cccc(OC(F)(F)F)c1 [Example I-254, 2-(6-Fluoro-1-methyl-1H-indazol-3-yl)-5H-pyrrolo[2,3-b]pyrazine-7-carboxylic acid [(R)-1-(3-trifluoromethoxy-phenyl)-ethyl]-amide]	0.0186 µM	3.23 µM
CC(C)NC(=O)c1c[nH]c2ncc(-c3nn(C)c4ccc(Oc5cccc(Cl)c5)cc34)nc12 [Example I-280, 2-[5-(3-Chloro-phenoxy)-1-methyl-1H-indazol-3-yl]-5H-pyrrolo[2,3-b]pyrazine-7-carboxylic acid isopropylamide]	0.24 µM	0.377 µM
CC(C)NC(=O)c1c[nH]c2ncc(-c3nn(C)c4ccc(OC(F)(F)F)cc34)nc12 [Example I-281, 2-(1-Methyl-5-trifluoromethoxy-1H-indazol-3-yl)-5H-pyrrolo[2,3-b]pyrazine-7-carboxylic acid isopropylamide]	0.0609 µM	0.0125 µM
CC(C)NC(=O)c1c[nH]c2ncc(-c3nn(C)c4c3CCC4)nc12 [Example I-282, 2-(1-Methyl-1,4,5,6-tetrahydro-cyclopentapyrazol-3-yl)-5H-pyrrolo[2,3-b]pyrazine-7-carboxylic acid isopropylamide]	0.0127 µM	0.0319 µM
CC(C)NC(=O)c1c[nH]c2ncc(-c3nn(C)c4ccc(OC(F)F)cc34)nc12 [Example I-283, 2-(5-Difluoromethoxy-1-methyl-1H-indazol-3-yl)-5H-pyrrolo[2,3-b]pyrazine-7-carboxylic acid isopropylamide]	0.0143 µM	0.0045 µM

Continued, values first:

IC50 [1]	IC50 [2]	Structure (SMILES)
0.0825 µM	0.00458 µM	Cn1nc(-c2cnc3[nH]cc(C(=O)NC(C)(C)CO)c3n2)c2cc(OC(F)F)ccc21 [Example I-285, 2-(5-Difluoromethoxy-1-methyl-1H-indazol-3-yl)-5H-pyrrolo[2,3-b]pyrazine-7-carboxylic acid (2-hydroxy-1,1-dimethyl-ethyl)-amide]
0.748 µM	0.0837 µM	Cn1nc(-c2cnc3[nH]cc(C(=O)NC4(CO)CCOCC4)c3n2)c2cc(OC(F)F)ccc21 [Example I-286, 2-(5-Difluoromethoxy-1-methyl-1H-indazol-3-yl)-5H-pyrrolo[2,3-b]pyrazine-7-carboxylic acid (4-hydroxymethyl-tetrahydro-pyran-4-yl)-amide]
0.0787 µM	0.0139 µM	CC(C)(C)NC(=O)c1c[nH]c2ncc(-c3nn(CCCN4CC(F)(F)C4)c4ccc(OC(F)F)cc34)nc12 [Example I-296, 2-{1-[3-(3,3-Difluoro-azetidin-1-yl)-propyl]-5-difluoromethoxy-1H-indazol-3-yl}-5H-pyrrolo[2,3-b]pyrazine-7-carboxylic acid tert-butylamide]
0.0314 µM	0.0353 µM	CC(C)NC(=O)c1c[nH]c2ncc(-c3nn(Cc4ccon4)c4cc(Cl)ccc34)nc12 [Example I-310, 2-(6-Chloro-1-isoxazol-3-ylmethyl-1H-indazol-3-yl)-5H-pyrrolo[2,3-b]pyrazine-7-carboxylic acid isopropylamide]
0.00446 µM	0.0109 µM	CC(C)NC(=O)c1c[nH]c2ncc(-c3nn(Cc4nccn4C)c4cc(Cl)ccc34)nc12 [Example I-311, 2-[6-Chloro-1-(1-methyl-1H-imidazol-2-ylmethyl)-1H-indazol-3-yl]-5H-pyrrolo[2,3-b]pyrazine-7-carboxylic acid isopropylamide]
0.00825 µM	0.0736 µM	Cc1cc(Cn2nc(-c3cnc4[nH]cc(C(=O)NC(C)C)c4n3)c3ccc(Cl)cc32)no1 [Example I-312, 2-[6-Chloro-1-(5-methyl-isoxazol-3-ylmethyl)-1H-indazol-3-yl]-5H-pyrrolo[2,3-b]pyrazine-7-carboxylic acid isopropylamide]
0.157 µM	0.046 µM	CN(C)CCn1nc(-c2cnc3[nH]cc(C(=O)NC(C)(C)C)c3n2)c2ccc(F)cc21 [Example I-313, 2-[1-(2-Dimethylamino-ethyl)-6-fluoro-1H-indazol-3-yl]-5H-pyrrolo[2,3-b]pyrazine-7-carboxylic acid tert-butylamide]
0.0053 µM	0.0148 µM	CC(C)(C)NC(=O)c1c[nH]c2ncc(-c3ncn4cc(F)ccc34)nc12 [Example I-357, 2-(6-Fluoro-imidazo[1,5-a]pyridin-1-yl)-5H-pyrrolo[2,3-b]pyrazine-7-carboxylic acid tert-butylamide]
0.0583 µM	0.00332 µM	COc1ccc2c(-c3cnc4[nH]cc(C(=O)NC(C)(C)CO)c4n3)nn(C)c2c1 [Example I-365, 2-(6-Methoxy-1-methyl-1H-indazol-3-yl)-5H-pyrrolo[2,3-b]pyrazine-7-carboxylic acid (2-hydroxy-1,1-dimethyl-ethyl)-amide]
0.0637 µM	< 1 nM (2×) and 1.6 nM	COc1ccc2c(-c3cnc4[nH]cc(C(=O)NC(C)(C)C)c4n3)nn(C)c2c1 [Example I-366, 2-(6-Methoxy-1-methyl-1H-indazol-3-yl)-5H-pyrrolo[2,3-b]pyrazine-7-carboxylic acid tert-butylamide]
0.0229 µM	0.00337 µM	CCC(C)(C)NC(=O)c1c[nH]c2ncc(-c3nn(C)c4cc(F)ccc34)nc12 [Example I-375, 2-(6-Fluoro-1-methyl-1H-indazol-3-yl)-5H-pyrrolo[2,3-b]pyrazine-7-carboxylic acid (1,1-dimethyl-propyl)-amide]
0.0054 µM	0.00455 µM	Cn1nc(-c2cnc3[nH]cc(C(=O)NC(C)(C)C#N)c3n2)c2ccc(F)cc21 [Example I-377, 2-(6-Fluoro-1-methyl-1H-indazol-3-yl)-5H-pyrrolo[2,3-b]pyrazine-7-carboxylic acid (cyano-dimethyl-methyl)-amide]
0.0128 µM	0.00308 µM	Cn1nc(-c2cnc3[nH]cc(C(=O)NC4(C)CC4)c3n2)c2ccc(F)cc21 [Example I-378, 2-(6-Fluoro-1-methyl-1H-indazol-3-yl)-5H-pyrrolo[2,3-b]pyrazine-7-carboxylic acid (1-methyl-cyclopropyl)-amide]
0.0181 µM	0.00473 µM	CC(C)(C)NC(=O)c1c[nH]c2ncc(-c3cccc4[nH]ncc34)nc12 [Example I-399, 2-(1H-Indazol-4-yl)-5H-pyrrolo[2,3-b]pyrazine-7-carboxylic acid tert-butylamide]
